From the supplement of paper PMC12463676, “Small-molecule dissolution of stress granules by redox modulation benefits ALS models” (Nature Chemical Biology, 2025)

What was measured:
lipoamide = compound: NC(=O)CCCCC1CCSS1 [lipoamide]; test: thermal stability z-score vs DMSO; higher = more thermally stabilized by treatment; conditions: HeLa, lipoamide concentration 100 µM
Protocol: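 Cellular thermal proteome profiling in HeLa cells. Cells were treated with 100 µM lipoamide for 1 h, with or without 1 mM arsenate for a further 1 h, then heated to ten temperatures (37-66.3 °C), and soluble protein was quantified by TMT mass spectrometry relative to 0.1% DMSO controls. The thermal stability score (sum of log2 fold changes minus the abundance score) was transformed to a z-score; mean of n = 3 experiments.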

potassium arsenate = compound: O=[As]([O-])(O)O.[K+] [potassium arsenate]; test: as above; conditions: HeLa; arsenate concentration 1 mM
Protocol: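 Cellular thermal proteome profiling in HeLa cells treated with 1 mM arsenate for 1 h (DMSO pretreatment), heated to ten temperatures (37-66.3 °C). Soluble protein was quantified by TMT mass spectrometry relative to DMSO controls; the thermal stability score was transformed to a z-score; mean of n = 3 experiments.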

[1] = arsenate co-treatment: 1 mM arsenate 1 h
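Further: each temperature applied for 3 min, abundance score taken as mean log2 fold change at the two lowest temperatures, z-score obtained by mean subtraction and division by SD.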

Chain of UniProt Q9BRT2 (Q9BRT2 whole entry): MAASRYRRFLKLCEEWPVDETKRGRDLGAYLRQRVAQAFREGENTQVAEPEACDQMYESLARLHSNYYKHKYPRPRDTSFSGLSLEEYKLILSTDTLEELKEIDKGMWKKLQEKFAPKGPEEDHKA
Chain of UniProt O00471 (O00471 whole entry): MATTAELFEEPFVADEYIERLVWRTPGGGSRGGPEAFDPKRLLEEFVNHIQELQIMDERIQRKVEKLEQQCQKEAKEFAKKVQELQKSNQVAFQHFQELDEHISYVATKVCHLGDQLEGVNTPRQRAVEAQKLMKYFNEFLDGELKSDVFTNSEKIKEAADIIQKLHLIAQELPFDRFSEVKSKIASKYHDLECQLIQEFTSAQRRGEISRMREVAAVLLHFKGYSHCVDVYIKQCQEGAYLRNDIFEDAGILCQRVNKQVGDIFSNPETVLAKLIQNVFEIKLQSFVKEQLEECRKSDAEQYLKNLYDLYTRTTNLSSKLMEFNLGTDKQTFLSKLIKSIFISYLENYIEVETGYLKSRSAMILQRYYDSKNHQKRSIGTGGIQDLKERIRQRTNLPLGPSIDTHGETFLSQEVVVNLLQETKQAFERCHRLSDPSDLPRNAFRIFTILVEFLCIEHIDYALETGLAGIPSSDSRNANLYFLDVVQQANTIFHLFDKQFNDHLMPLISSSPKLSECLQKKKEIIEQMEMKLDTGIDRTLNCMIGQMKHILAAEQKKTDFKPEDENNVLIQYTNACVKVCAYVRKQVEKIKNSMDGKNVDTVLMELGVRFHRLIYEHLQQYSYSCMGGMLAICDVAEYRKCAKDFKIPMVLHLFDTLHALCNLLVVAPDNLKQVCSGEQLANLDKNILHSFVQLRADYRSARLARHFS
Chain of UniProt Q9GZS1 (Q9GZS1 whole entry): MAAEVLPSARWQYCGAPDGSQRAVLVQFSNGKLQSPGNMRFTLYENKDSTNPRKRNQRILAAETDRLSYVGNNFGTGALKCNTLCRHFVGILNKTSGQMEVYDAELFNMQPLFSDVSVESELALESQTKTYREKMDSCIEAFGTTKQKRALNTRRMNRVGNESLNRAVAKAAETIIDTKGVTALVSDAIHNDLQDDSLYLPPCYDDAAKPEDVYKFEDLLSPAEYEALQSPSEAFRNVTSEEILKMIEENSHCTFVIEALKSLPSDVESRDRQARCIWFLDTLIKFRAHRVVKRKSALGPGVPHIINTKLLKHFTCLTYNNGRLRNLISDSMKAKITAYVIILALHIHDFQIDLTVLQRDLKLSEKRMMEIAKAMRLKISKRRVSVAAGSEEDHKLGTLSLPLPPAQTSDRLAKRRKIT
Chain of UniProt Q9H1D9 (Q9H1D9 whole entry): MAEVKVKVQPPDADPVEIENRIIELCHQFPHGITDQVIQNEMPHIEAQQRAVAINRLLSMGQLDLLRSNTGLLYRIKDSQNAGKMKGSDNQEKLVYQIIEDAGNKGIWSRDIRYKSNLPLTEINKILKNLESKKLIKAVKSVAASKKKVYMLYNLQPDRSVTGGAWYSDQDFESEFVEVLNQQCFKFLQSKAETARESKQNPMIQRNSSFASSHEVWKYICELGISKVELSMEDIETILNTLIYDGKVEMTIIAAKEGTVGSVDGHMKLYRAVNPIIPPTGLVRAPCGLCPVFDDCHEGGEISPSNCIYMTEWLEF
Chain of UniProt Q9P2R7 (Q9P2R7 whole entry): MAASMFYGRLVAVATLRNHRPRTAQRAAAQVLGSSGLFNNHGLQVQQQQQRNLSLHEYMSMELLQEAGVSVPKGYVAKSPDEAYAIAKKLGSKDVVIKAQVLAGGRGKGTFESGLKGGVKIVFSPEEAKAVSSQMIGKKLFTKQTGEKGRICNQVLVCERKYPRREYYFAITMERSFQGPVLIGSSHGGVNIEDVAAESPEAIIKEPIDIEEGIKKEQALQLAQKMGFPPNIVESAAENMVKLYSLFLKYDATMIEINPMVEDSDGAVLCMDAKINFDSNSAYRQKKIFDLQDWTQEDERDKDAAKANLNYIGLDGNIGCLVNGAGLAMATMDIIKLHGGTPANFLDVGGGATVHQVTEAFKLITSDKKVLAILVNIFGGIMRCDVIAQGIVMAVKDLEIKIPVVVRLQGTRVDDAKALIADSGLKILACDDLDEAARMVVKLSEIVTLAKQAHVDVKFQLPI
Chain of UniProt Q96QR8 (Q96QR8 whole entry): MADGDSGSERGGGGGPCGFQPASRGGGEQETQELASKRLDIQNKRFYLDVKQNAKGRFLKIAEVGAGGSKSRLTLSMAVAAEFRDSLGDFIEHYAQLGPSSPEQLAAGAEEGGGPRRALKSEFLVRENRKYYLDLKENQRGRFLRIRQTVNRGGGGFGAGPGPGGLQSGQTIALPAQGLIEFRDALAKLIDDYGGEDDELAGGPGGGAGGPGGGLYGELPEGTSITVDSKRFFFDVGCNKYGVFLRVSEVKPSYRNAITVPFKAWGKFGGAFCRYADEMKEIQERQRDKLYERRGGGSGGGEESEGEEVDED
Chain of UniProt Q15527 (Q15527 whole entry): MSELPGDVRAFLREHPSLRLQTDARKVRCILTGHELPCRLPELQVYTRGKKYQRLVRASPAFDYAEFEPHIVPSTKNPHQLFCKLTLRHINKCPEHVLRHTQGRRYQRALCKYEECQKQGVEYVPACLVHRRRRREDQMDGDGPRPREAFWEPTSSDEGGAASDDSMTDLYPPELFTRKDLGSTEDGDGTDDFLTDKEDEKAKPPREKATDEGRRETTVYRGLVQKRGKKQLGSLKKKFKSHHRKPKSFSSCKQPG
Chain of UniProt P52735 (P52735 whole entry): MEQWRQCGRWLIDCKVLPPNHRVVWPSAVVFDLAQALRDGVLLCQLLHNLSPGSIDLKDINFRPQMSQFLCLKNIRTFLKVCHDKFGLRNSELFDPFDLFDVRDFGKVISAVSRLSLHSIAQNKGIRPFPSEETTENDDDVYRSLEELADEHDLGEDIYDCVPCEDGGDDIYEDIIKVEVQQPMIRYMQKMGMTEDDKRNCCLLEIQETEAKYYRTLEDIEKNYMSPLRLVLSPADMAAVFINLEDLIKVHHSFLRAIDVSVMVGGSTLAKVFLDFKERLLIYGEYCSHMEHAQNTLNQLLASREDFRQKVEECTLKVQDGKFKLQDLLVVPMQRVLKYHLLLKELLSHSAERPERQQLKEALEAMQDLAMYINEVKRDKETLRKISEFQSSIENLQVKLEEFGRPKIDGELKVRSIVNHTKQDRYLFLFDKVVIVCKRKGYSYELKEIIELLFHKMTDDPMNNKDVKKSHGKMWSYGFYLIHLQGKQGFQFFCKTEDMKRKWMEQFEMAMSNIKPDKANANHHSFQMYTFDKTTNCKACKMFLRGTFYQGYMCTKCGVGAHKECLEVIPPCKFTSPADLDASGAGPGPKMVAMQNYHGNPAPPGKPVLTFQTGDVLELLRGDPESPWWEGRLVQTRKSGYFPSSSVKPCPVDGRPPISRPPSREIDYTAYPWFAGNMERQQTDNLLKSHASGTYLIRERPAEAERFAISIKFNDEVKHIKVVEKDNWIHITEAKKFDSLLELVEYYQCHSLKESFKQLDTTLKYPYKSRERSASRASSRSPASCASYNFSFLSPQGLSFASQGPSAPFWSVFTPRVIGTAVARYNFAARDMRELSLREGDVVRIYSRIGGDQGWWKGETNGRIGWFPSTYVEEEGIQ
Chain of UniProt Q9NUN5 (Q9NUN5 whole entry): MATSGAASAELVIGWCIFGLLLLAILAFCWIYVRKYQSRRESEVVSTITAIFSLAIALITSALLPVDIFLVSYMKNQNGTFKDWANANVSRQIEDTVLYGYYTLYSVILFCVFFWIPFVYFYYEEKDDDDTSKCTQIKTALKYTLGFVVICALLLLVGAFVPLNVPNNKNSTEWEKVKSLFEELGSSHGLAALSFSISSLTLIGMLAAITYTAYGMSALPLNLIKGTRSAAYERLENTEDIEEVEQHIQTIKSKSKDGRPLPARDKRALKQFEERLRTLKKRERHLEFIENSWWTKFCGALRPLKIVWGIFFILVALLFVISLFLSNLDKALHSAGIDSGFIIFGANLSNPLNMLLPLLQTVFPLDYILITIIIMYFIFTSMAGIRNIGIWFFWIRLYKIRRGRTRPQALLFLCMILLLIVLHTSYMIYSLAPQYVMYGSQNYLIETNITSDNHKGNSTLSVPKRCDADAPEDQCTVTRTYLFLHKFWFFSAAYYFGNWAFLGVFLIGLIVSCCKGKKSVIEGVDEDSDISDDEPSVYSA
Chain of UniProt P43304 (P43304 whole entry): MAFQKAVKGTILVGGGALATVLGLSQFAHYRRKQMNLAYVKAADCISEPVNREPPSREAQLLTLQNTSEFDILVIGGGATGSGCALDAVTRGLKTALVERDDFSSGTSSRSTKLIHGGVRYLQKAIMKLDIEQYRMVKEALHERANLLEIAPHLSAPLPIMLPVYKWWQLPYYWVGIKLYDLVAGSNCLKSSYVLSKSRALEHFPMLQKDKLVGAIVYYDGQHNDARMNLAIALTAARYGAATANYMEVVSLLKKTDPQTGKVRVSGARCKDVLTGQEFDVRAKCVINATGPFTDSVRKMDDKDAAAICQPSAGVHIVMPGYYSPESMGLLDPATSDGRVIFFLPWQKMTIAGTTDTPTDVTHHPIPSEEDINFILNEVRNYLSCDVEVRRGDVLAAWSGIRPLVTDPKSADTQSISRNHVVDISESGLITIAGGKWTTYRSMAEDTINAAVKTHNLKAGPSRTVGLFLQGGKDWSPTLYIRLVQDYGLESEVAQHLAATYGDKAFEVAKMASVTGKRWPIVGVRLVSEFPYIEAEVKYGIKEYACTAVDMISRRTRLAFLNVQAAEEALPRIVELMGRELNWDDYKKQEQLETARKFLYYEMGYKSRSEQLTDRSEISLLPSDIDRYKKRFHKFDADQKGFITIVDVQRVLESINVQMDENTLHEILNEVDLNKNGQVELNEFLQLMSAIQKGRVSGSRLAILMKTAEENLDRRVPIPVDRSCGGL
Chain of UniProt Q9BRA0 (Q9BRA0 whole entry): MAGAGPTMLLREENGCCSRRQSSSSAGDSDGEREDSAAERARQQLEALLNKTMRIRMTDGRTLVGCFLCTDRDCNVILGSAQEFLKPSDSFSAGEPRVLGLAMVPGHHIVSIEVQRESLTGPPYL

| Target | thermal stability z-score (lipoamide; [1]) | thermal stability z-score (lipoamide; arsenate co-treatment: none) | thermal stability z-score (potassium arsenate) |
| --- | --- | --- | --- |
| RPL36 (UniProt Q9Y3U8) | 0.354 | -0.0802 | -1.19 |
| FAM83B (UniProt Q5T0W9) | -0.567 | -0.89 | -2.02 |
| NADSYN1 (UniProt Q6IA69) | 0.995 | 0.788 | -0.0415 |
| SYNJ2 (UniProt O15056) | 0.0806 | 0.0587 | -0.0134 |
| ARL6 (UniProt Q9H0F7) | 0.197 | 0.233 | 0.202 |
| FUBP1 (UniProt Q96AE4) | 0.139 | 0.157 | 0.0234 |
| PURB (UniProt Q96QR8) | 0.083 | 0.15 | 0.364 |
| ZWINT (UniProt O95229) | 0.0176 | -0.0608 | 0.0525 |
| DHRSX (UniProt Q8N5I4) | 0.396 | 0.418 | -0.643 |
| STX18 (UniProt Q9P2W9) | 0.00945 | 0.0404 | 0.066 |
| POLRMT (UniProt O00411) | 0.314 | -0.744 | -0.331 |
| FBXO38 (UniProt Q6PIJ6) | 0.0679 | -0.115 | -0.981 |
| TLK1 (UniProt Q9UKI8) | 0.193 | -0.983 | 0.956 |
| MARCH6 (UniProt O60337) | -0.245 | -0.44 | -0.855 |
| NUP62 (UniProt P37198) | -0.129 | -0.358 | 0.329 |
| MIEF1 | -0.243 | -0.035 | -0.198 |
| LMBRD1 (UniProt Q9NUN5) | -0.626 | -0.635 | 0.252 |
| RPS21 (UniProt P63220) | 0.253 | 0.512 | -0.196 |
| NDUFB6 (UniProt O95139) | 0.071 | 0.306 | 0.873 |
| MYO9B (UniProt Q13459) | -0.266 | -0.1 | -0.364 |
| PRKCD (UniProt Q05655) | -0.0378 | 0.235 | -0.477 |
| VAV2 (UniProt P52735) | 0.0635 | 0.172 | 0.835 |
| PACSIN2 (UniProt Q9UNF0) | 0.246 | 0.134 | 0.638 |
| GPD2 (UniProt P43304) | 0.223 | 0.223 | -0.0843 |
| NDOR1 (UniProt Q9UHB4) | 0.000709 | 0.487 | 1.08 |
| IQGAP1 (UniProt P46940) | 0.776 | 0.818 | -1.08 |
| NCL (UniProt P19338) | 0.724 | 0.77 | -0.611 |
| TSPAN6 (UniProt O43657) | 0.216 | 0.486 | 0.466 |

| Target | thermal stability z-score (lipoamide; [1]) | thermal stability z-score (lipoamide; arsenate co-treatment: none) | thermal stability z-score (potassium arsenate) |
| --- | --- | --- | --- |
| DENND5B (UniProt Q6ZUT9) | 0.0786 | 0.0385 | 0.148 |
| RAP1B (UniProt P61224) | 0.74 | 0.45 | 0.17 |
| BPGM (UniProt P07738) | -1.9 | -0.479 | -1.82 |
| TBC1D15 (UniProt Q8TC07) | -0.559 | -0.646 | -0.276 |
| YIPF3 (UniProt Q9GZM5) | -0.157 | 0.0301 | -0.0851 |
| CHTOP (UniProt Q9Y3Y2) | 1.86 | 0.726 | 0.73 |
| IST1 (UniProt P53990) | 0.453 | 0.367 | 0.351 |
| CCDC90B (UniProt Q9GZT6) | 0.364 | 0.229 | 0.136 |
| POLR1E (UniProt Q9GZS1) | 0.144 | 0.0221 | -0.0491 |
| SURF2 (UniProt Q15527) | -0.0697 | 0.247 | -0.529 |
| UQCC2 (UniProt Q9BRT2) | 0.0305 | -0.239 | 0.139 |
| VASP (UniProt P50552) | 0.564 | 0.923 | -0.33 |
| SUCLA2 (UniProt Q9P2R7) | 0.0341 | 0.0719 | -0.411 |
| STEAP4 (UniProt Q687X5) | 0.438 | 0.75 | 0.565 |
| ANKRD54 (UniProt Q6NXT1) | -0.042 | -0.267 | -0.49 |
| POLR3F (UniProt Q9H1D9) | -0.186 | -0.242 | -1.32 |
| RAI14 (UniProt Q9P0K7) | -0.47 | -0.419 | -0.554 |
| OSBPL1A (UniProt Q9BXW6) | -1.13 | 0.611 | 0.355 |
| NAA38 (UniProt Q9BRA0) | 0.599 | 0.425 | -0.643 |
| MAN1A2 (UniProt O60476) | -0.432 | -0.498 | -0.352 |
| TAGLN2 (UniProt P37802) | 0.511 | 0.94 | -0.184 |
| EXOC5 (UniProt O00471) | -0.0743 | 0.105 | -0.0647 |
| SUMF2 (UniProt Q8NBJ7) | -3.47 | -2.99 | 0.544 |
| EXOC4 (UniProt Q96A65) | -0.433 | -0.0966 | 0.0526 |
| FAHD1 (UniProt Q6P587) | 0.565 | 0.339 | 0.21 |
| ARID2 (UniProt Q68CP9) | 0.136 | 0.254 | -0.234 |
| IRF2BPL (UniProt Q9H1B7) | 0.0789 | 0.157 | -0.124 |
